pIC50: −log10 of the molar value.
Tests used:
[1] = Inhibitory activity against Cyclin-dependent kinase 1 (CDK1)
[2] = target: Cyclin-dependent kinase 2 (Homo sapiens, UniProt P24941); assay: Inhibitory activity against Cyclin-dependent kinase 2 (CDK2)
[3] = target: Cyclin-dependent kinase 4 (Homo sapiens, UniProt P11802); assay: Inhibitory activity against Cyclin-dependent kinase 4 (CDK4)
Sequence of Cyclin-dependent kinase 4 (P11802 whole entry): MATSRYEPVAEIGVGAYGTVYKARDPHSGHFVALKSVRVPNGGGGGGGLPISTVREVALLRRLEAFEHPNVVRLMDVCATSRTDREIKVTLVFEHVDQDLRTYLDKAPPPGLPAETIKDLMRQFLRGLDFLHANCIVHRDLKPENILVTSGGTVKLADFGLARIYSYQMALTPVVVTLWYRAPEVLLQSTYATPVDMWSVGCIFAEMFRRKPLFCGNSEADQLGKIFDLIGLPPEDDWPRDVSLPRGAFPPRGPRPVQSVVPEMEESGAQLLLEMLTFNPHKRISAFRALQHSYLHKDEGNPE

SMILES	pIC50 [1]	pIC50 [2]	pIC50 [3]
N#C/C=C(/c1ccc2nc(N)c(C(=O)c3c(F)cccc3F)n2c1)c1c(F)cccc1F	7.28	6.80	5.81
Nc1nc2ccc(C(=O)c3c(F)cccc3F)cn2c1C(=O)c1ccncc1		5.60	
COc1cccc(OC)c1C(=S)c1c(N)nc2ccc(C(=O)c3c(F)cccc3F)cn12		6.34	
Nc1nc2ccc(C(=O)c3c(Cl)cccc3Cl)cn2c1C(=O)c1c(F)cc(C(=O)O)cc1F	6.48	7.02	5.59
Nc1nc2ccc(C(=O)c3ccccc3Cl)cn2c1C(=O)c1c(F)cccc1F		6.37	
CN1CCN(CCOc2cc(F)c(C(=O)c3c(N)nc4ccc(C(=O)c5c(Cl)cccc5Cl)cn34)c(F)c2)CC1		6.09	
Nc1nc2ccc(C(=O)c3ccccc3)cn2c1C(=O)c1c(F)cccc1F		5.72	
CN(C)CCOc1cc(F)c(C(=O)c2c(N)nc3ccc(C(=O)c4c(Cl)cccc4Cl)cn23)c(F)c1		6.01	
Nc1nc2ccc(/C(=C/c3nn[nH]n3)c3c(F)cccc3F)cn2c1C(=O)c1c(F)cccc1F	7.02	5.77	5.77
Nc1nc2ccc(C(=O)c3ccccc3OC(F)(F)F)cn2c1C(=O)c1c(F)cccc1F		5.66	
Nc1nc2ccc(C(=O)c3c(F)cccc3F)cn2c1C(=O)c1cccs1		6.26	
Nc1nc2ccc(C(=O)c3c(F)cccc3F)cn2c1C(=O)c1ccccc1			5.30
N#C/C=C(\c1ccc2nc(N)c(C(=O)c3c(F)cccc3F)n2c1)c1c(F)cccc1F		6.05	
NC(=O)c1cc(F)c(C(=O)c2c(N)nc3ccc(C(=O)c4c(Cl)cccc4Cl)cn23)c(F)c1	6.81	7.34	5.94
Nc1nc2ccc(C(=O)c3ccccc3C(F)(F)F)cn2c1C(=O)c1c(F)cccc1F		5.97	
Cc1ccccc1C(=O)c1ccc2nc(N)c(C(=O)c3c(F)cccc3F)n2c1		5.89	
Nc1nc2ccc(C(=O)c3c(Cl)cccc3Cl)cn2c1C(=O)c1c(F)cccc1F		7.28	
Nc1nc2ccc(C(=O)c3c(F)cccc3F)cn2c1C(=O)c1ccc(Cl)cc1		5.77	
Nc1nc2ccc(C(=O)c3c(F)cccc3F)cn2c1C(=S)c1ccccc1	6.78	6.67	5.72

More lines, now with the values ahead:

pIC50 [1]	pIC50 [2]	pIC50 [3]	SMILES
7.03	7.20	5.99	C=C(c1ccc2nc(N)c(C(=O)c3c(F)cccc3F)n2c1)c1c(F)cccc1F
6.88	7.04	6.08	COc1cc(F)c(C(=O)c2c(N)nc3ccc(C(=O)c4c(F)cccc4F)cn23)c(F)c1
6.62	6.99	6.08	Nc1nc2ccc(C(=O)c3c(F)cccc3F)cn2c1C(=O)c1c(F)cccc1Cl
6.98	7.59	6.10	Nc1nc2ccc(C(=O)c3c(F)cccc3F)cn2c1C(=S)c1c(F)cccc1F
6.98	7.48	6.09	Nc1nc2ccc(C(=O)c3c(F)cccc3Cl)cn2c1C(=O)c1c(F)cccc1F
7.24	6.91	5.97	Nc1nc2ccc(C(=O)c3c(F)cccc3F)cn2c1C(=O)c1c(F)cccc1F
6.32	7.17	5.70	COc1ccccc1C(=O)c1c(N)nc2ccc(C(=O)c3c(F)cccc3F)cn12
	6.22		COc1ccccc1C(=O)c1ccc2nc(N)c(C(=O)c3c(F)cccc3F)n2c1
6.84	7.54	6.33	COc1cc(F)c(C(=S)c2c(N)nc3ccc(C(=O)c4c(F)cccc4F)cn23)c(F)c1
6.68	6.92	6.44	Nc1nc2ccc(C(=O)c3c(F)cccc3F)cn2c1C(=O)c1c(Cl)cccc1Cl
	7.28		Nc1nc2ccc(C(=O)c3c(Cl)cccc3Cl)cn2c1C(=O)c1c(F)cc(O)cc1F

Source: ChEMBL document CHEMBL1138729, “Aminoimidazo[1,2-a]pyridines as a new structural class of cyclin-dependent kinase inhibitors. Part 1: Design, synthesis, and biological evaluation” (Bioorg Med Chem Lett, 2004)
